In patent US20220289731A1, “MELANOCORTIN-4 RECEPTOR AGONISTS” (LG CHEM, LTD., priority 2019, published 2022):

Key:
[1] = molecular target: T1, MC4R (Homo sapiens, UniProt P32245); test: Binding affinity, 125I-NDP-α-MSH displacement on membranes; design: expressed in transfected cells; host or cells: HEK-293 cells; membranes collected; settings: HEK-293 MC4R membrane, 0.02 nM 125I-NDP-α-MSH
From the text: Five subtypes of melanocortin receptor (MCR) in vivo are known, and it is known that MC4R, which is Subtype 4, is involved in energy metabolism and weight control. Since other MCR subtypes are involved in the regulation of various functions in vivo such as skin pigmentation, energy homeostasis, and exocrine functions, securing selectivity for MC4R of MC4R agonist compounds is very important in preventing possible side effects in the future. Therefore, the receptor binding abilities of MC4R agonists for each MCR subtype were measured.
After the CHO-K1 cell line expressing human recombinant MC1R and the HEK-293 cell lines expressing MC3R, MC4R and MCSR were established, membranes were collected from each cell line. In a 96-well cell culture plate, 3 μg MC1R membrane and 0.04 nM ^125I-NDP-α-MSH per well were reacted at 37° C. for two hours. 3 μg MC3R and MCSR membrane and 0.035 nM ^125I-NDP-α-MSH were reacted at 37° C. for one hour, and 3.12 μg MC4R membrane and 0.02 nM ^125I-NDP-α-MSH were reacted at 37° C. for two hours. At this time, 25 mM HEPES-KOH adsorption buffer (pH 7.0) containing MCR agonist diluted at each step concentration was added to each well and reacted. The reacted solution was transferred to a filter and washed with an adsorption buffer, and then radioactivity was measured. The value excluding the non-specific binding amount in the presence of 1 μM (MC1R) and 3 μM (MC3R, MC4R, MCSR) of NDP-α-MSH from each total binding amount was used as specific binding amounts of ^125I-NDP-α-MSH. The degree to which the ^125I-NDP-α-MSH specific binding was inhibited by the agonist diluted at each step concentration was measured. IC50 was expressed as the concentration of each agonist that inhibited specific binding of 50% of ^125I-NDP-α-MSH.
Target sequence in this assay (P32245 whole entry): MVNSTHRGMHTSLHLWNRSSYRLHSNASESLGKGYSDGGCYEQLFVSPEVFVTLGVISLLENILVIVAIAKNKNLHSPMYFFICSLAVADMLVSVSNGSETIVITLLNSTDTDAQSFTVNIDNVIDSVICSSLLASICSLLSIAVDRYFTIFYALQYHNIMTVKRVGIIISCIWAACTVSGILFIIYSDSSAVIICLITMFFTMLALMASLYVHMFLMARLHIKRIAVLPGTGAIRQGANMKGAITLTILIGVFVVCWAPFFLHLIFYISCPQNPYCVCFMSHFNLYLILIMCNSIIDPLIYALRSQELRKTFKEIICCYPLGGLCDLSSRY

[2] = molecular target: T1, MC4R; test: cAMP assay (cAMP Hunter Gs-coupled CHO-K1 cell line); type: cell-based; design: expressed in transfected cells; host or cells: CHO-K1 (cAMP Hunter Gs-coupled cell line); settings: CHO-K1 cells overexpressing MC4R, 30 min at 37° C.
From the text: The melanocortin receptor is a type of G-protein coupled receptor (GPCR), and the main role of G-protein is to activate secondary transducers to regulate cellular responses to many physiological stimuli through signal transduction. MC4R is a Gs-coupled receptor, and it is known that if MC4R interacts with an agonist, adenylate cyclase (AC) is activated to increase the concentration of cyclic AMP (cAMP), which is one of the secondary transducers in cells. Therefore, it is possible to evaluate the activity of melanocortin receptors by measuring the generation of cAMP signals.
After cAMP Hunter Gs-coupled cell lines (CHO-K1 cell line) in which each of MC1R, MC3R, MC4R and MCSR was overexpressed were established so that the increase in the cAMP level in cells due to agonist reaction was measurable, the cells were inoculated into each well of a white cell culture plate and incubated for 24 hours in a 37° C. incubator in the presence of 5% CO2. After the incubation, the medium was removed, and 15 μl of a 2:1 HBBS/10 mM HEPES:cAMP XS+Ab reagent was added. After 5 μl of the sample diluted 4 times with buffer was added, the vehicle concentration was set to 1%, and the MC4R agonist compound diluted at each step concentration was added, followed by reaction at 37° C. for 30 minutes. The activity (%) of each agonist compound is expressed as 100%×(average RLU value of sample−average RLU value of vehicle control)/(average RLU value of max control−average RLU value of vehicle control), and the value was analyzed by CBIS data analysis suite (ChemInnovation, CA).
Target sequence in this assay (P32245 whole entry, species assumed): as the sequence (P32245 whole entry) above

[3] = molecular target: CYP2C9 (Homo sapiens, UniProt P11712); test: CYP inhibition, recombinant enzyme, fluorescence; type: in vitro ADME; settings: 10 μM compound; for inhibition at 30 min, 10 µM: human, recombinant CYP2C9, pH 7.4, 30 min pre-incubation, read-out: CYP inhibition (%) at 10 μM, 2C9
Procedure: (§1) The following Table 8 was referred for the use of a probe substrate, positive control, and isozyme and measurement conditions with respect to the measurement of the inhibitory ability of each substance. [table] […] The buffer spiked with experimental compound was mixed with the same volume of CYP isozyme prep solution so that the final concentration was 10 μM, followed by pre-warming for 10 minutes in a 37° C. fluorescence plate-reader. Each well NRS solution (NADPH Regeneration System: 0.22 mM β-NADP, 2.8 mM glucose-6-phosphate, and 0.6 units/mL of glucose-6-phosphate dehydrogenase) was added, followed by pre-incubation for 30 minutes. Thereafter, the reaction was initiated by adding the substrate to the well subjected to pre-incubation and monitored at intervals of one minute at the measurement wavelength for each substrate for 30 minutes. The measured values obtained from the positive control and the compound of Example 1 were compared with the fluorescence intensity of a negative control (no inhibition or compound) to confirm the inhibitory ability of each compound against isozyme. Inhibitory activity (%) was expressed based on the following criteria: […]

[4] = molecular target: T2, CYP1A2 (Homo sapiens, UniProt P05177); test: CYP inhibition, recombinant enzyme, fluorescence; type: in vitro ADME; settings: recombinant CYP1A2, pH 7.4, 10 μM compound, 30 min pre-incubation, read-out: CYP inhibition (%) at 10 μM, 1A2
T2 sequence (P05177 1-516): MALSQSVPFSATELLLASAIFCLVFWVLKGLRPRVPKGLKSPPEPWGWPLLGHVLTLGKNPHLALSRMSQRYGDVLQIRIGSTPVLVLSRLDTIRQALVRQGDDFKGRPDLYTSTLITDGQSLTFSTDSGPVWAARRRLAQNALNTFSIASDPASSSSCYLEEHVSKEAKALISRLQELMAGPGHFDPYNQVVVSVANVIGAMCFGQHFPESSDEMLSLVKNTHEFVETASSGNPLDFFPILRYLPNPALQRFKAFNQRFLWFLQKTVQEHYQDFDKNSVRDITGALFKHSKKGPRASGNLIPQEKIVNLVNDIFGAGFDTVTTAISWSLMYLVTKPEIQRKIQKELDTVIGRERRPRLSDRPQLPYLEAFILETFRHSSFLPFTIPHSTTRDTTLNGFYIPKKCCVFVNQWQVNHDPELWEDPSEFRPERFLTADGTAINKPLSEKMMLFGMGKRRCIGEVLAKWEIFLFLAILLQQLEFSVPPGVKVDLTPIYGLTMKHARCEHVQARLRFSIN
Procedure: as §1

[5] = molecular target: CYP2D6 (Homo sapiens, UniProt P10635); test: CYP inhibition, recombinant enzyme, fluorescence; type: in vitro ADME; settings: recombinant CYP2D6, pH 7.4, 10 μM compound, 30 min pre-incubation, read-out: CYP inhibition (%) at 10 μM, 2D6
Procedure: as §1

Sequence of CYP2C9 (P11712 whole entry): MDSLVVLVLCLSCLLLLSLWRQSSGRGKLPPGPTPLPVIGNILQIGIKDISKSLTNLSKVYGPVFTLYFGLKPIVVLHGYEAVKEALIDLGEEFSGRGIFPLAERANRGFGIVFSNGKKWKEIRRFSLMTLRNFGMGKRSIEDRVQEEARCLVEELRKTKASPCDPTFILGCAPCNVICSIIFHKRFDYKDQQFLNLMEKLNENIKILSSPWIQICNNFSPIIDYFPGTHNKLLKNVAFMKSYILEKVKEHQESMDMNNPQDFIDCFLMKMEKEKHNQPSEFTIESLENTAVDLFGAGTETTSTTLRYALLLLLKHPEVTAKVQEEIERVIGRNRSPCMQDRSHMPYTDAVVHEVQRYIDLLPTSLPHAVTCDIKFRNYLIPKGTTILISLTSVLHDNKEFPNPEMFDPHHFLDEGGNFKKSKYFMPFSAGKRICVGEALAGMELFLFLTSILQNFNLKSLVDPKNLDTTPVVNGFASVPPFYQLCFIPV
Sequence of CYP2D6 (P10635 whole entry): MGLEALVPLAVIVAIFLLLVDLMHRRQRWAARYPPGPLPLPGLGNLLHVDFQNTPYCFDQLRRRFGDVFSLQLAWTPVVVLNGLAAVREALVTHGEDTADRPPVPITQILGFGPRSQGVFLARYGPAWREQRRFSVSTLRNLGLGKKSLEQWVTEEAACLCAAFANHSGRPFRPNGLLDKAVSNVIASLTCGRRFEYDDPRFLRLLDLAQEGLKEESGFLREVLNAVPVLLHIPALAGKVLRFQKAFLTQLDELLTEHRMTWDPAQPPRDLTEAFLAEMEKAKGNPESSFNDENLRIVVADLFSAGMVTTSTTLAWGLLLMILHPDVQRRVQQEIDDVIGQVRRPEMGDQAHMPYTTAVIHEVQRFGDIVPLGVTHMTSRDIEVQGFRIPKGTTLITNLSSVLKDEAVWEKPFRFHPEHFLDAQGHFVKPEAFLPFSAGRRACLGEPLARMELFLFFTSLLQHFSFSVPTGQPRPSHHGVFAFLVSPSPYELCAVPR

SMILES	Ki [1]	EC50 [2]	Inhibitory ability against CYP2C9 (in words) [3]	inhibition at 30 min, 10 µM [3]	inhibition at 30 min, 10 µM [4]	inhibition at 30 min, 10 µM [5]
CC(=O)N(C1CCC(C)(C)CC1)[C@H]1C[C@@H](C(=O)N2CCOCC2)N(C(=O)[C@@H]2CN(C(C)(C)C)C[C@H]2c2ccc(Cl)cc2)C1.Cl [Comparative Example 2 (A96), N-((3S,5S)-1-((3S,4R)-1-(tert-butyl)-4-(4-chlorophenyl)pyrrolidine-3-carbonyl)-5-(morpholine-4-carbonyl)pyrrolidin-3-yl)-N-(4,4-dimethylcyclohexyl)acetamide hydrochloride]	360 nM	150 nM	very high inhibitory ability	> 50%	< 50%	< 50%
CC(C)C(=O)N([C@H]1C[C@@H](C(=O)N2CCOCC2)N(C(=O)[C@@H]2CN(C(C)(C)C)C[C@H]2c2ccc(Cl)cc2)C1)[C@H]1CC[C@@H](C)CC1.Cl [Example 1, N-((3S,5S)-1-((3S,4R)-1-(tert-butyl)-4-(4-chlorophenyl)pyrrolidine-3-carbonyl)-5-(morpholine-4-carbonyl)pyrrolidin-3-yl)-N-((1s,4R)-4-methylcyclohexyl)isobutyramide hydrochloride]	65 nM	36.5 nM	–	< 50%	< 50%	< 50%
CC(=O)N(C1CCC(C)(C)CC1)[C@H]1C[C@@H](C(=O)N2CCOCC2)N(C(=O)[C@@H]2CN(C(C)(C)C)C[C@H]2c2ccc(F)cc2F)C1.Cl [Comparative Example 1 (A95), N-((3S,5S)-1-((3S,4R)-1-(tert-butyl)-4-(2,4-difluorophenyl)pyrrolidine-3-carbonyl)-5-(morpholine-4-carbonyl)pyrrolidin-3-yl)-N-(4,4-dimethylcyclohexyl)acetamide hydrochloride]	1400 nM	335 nM	–	–	–	–
